Data taken from paper PMC4355590, “A Kinetic Study of the Main Guaco Metabolites Using Syrup Formulation and the Identification of an Alternative Route of Coumarin Metabolism in Humans” (PLoS ONE, 2015).

Tests used:
[1] = Stability of stock solutions and working standard solutions; type: physicochemical; conditions: for Mean recovery: n = 8, ± SD
Description: The stability of the stock solutions (1 mg/mL of each analyte and ISs) was evaluated after 30 days of storage in a refrigerator (4°C, amber bottles). The stored solutions were diluted with acetonitrile/water (70:30 v/v) to obtain the same concentration levels as the short-term stability assay. The stability of the stock solutions was evaluated by comparing the mean recovery of the analytes and IS obtained from stored samples to the mean values obtained with freshly prepared samples, at the same concentration levels. The stability of the working standard solutions was assessed using a procedure similar to that described for stock solution stability. […]

[2] = Post-preparative stability of extracted samples; type: physicochemical; conditions: for Mean recovery: n = 8, ± SD
Description: (§1) Freeze-thawed, post-preparative and long-term stability assay samples were prepared and evaluated similar to the short-term stability samples. However, the freeze thawing assay was assessed after undergoing three freeze-thaw cycles (one freeze-thaw cycle per day on three consecutive days) and post-preparative assay, maintaining the extracted samples for 24 hours in the Sample Manager (20°C, transparent vials). The long-term stability of human plasma stored at -40°C was assessed at the end of the study (60 days).

[3] = Stability in human plasma: short-term, freeze-thaw and long-term; type: in vitro ADME; conditions: for Mean recovery: n = 8, ± SD
Description: The samples were vortexed for 2 min and then were kept at room temperature for 8 h. Afterward, the samples were spiked with 50 μL of IS solution and were vortexed (2 min) and submitted to the extraction procedures. The short-term stability was evaluated by comparing the mean recovery of the analytes and the IS obtained from stored samples with the mean values obtained with freshly prepared samples, at same concentration levels.
as §1

[4] = system: endothelium-intact or denuded rat aortic rings; design: method as in PMID 15178370, PMID 11864765; conditions: cited from earlier work
cyclooxygenase-2 = biological target: cyclooxygenase-2; design: method as in PMID 21211951; conditions: LPS-induced RAW264.7 macrophages; cited from earlier work
[5] = system: synthesis of nitric oxide; design: method as in PMID 21211951; conditions: LPS-induced RAW264.7 macrophages; read-out: IC50, inhibition of the synthesis of nitric oxide; cited from earlier work
[6] = Initial screening of bioavailability: 60 mL of guaco syrup orally; type: in vivo, human; conditions: 60 mL guaco syrup (17.6 mg COU, 1.1 mg OCA, 8.9 mg KAU), up to 600 min
Description: All the volunteers fasted for 8 h prior to the administration of guaco syrup and blood collection. […] The anticoagulant used was tetrasodium edetate. […] The pharmacokinetic analysis was performed using a non-compartmental model, considering an extravascular administration route and using WinNonlin Professional software, version 5.3. The relationships among the areas under the curves (r areas = AUC0-t/AUC0-inf), were used to confirm the suitability of the experimental design.

[7] = system: release of prostaglandin E2; design: method as in PMID 21211951; conditions: LPS-induced RAW264.7 macrophages; cited from earlier work
[8] = system: carrageenan-induced paw edema; design: method as in PMID 21211951; conditions: mice, 50 mg/kg, 5 h after the induction of inflammation; cited from earlier work
[9] = design: method as in PMID 7150456; conditions: cited from earlier work
[10] = 8 h at room temperature, internal standard level (6-methylcoumarin 500.0, Isoferulic acid 1000.0, Prednisone 500.0 ng/mL)
[11] = 8 h at room temperature, internal standard level, stored vs freshly prepared
[12] = 30 days at 4 °C (stock solutions), internal standard level (500.0, 1000.0, 500.0 ng/mL)
[13] = 30 days at 4 °C, internal standard level
[14] = post-preparative, internal standard level
[15] = post-preparative, internal standard level (500.0, 1000.0, 500.0 ng/mL)
[16] = Short-term, internal standard level
[17] = Short-term, internal standard level (500.0, 1000.0, 500.0 ng/mL)

Cc1ccc2oc(=O)ccc2c1 [6-methylcoumarin, reference compound]
Mean recovery [1, 10]: 497.3 ± 3.8 ng/mL | RE [1, 11]: -0.54% | Mean recovery [1, 12]: 480.6 ± 46.6 ng/mL | RE [1, 13]: -3.89% | RE [2, 14]: -6.38% | Mean recovery [2, 15]: 468.1 ± 22.6 ng/mL | RE [3, 16]: 0.45% | Mean recovery [3, 17]: 501.1 ± 1.6 ng/mL

COc1ccc(/C=C/C(=O)O)cc1O [Isoferulic acid, isoferulic acid, reference compound]
Mean recovery [1, 10]: 950.0 ± 75.2 ng/mL | RE [1, 11]: -5.00% | Mean recovery [1, 12]: 1037.5 ± 68.1 ng/mL | RE [1, 13]: 3.75% | RE [2, 14]: -1.35% | Mean recovery [2, 15]: 986.5 ± 31.7 ng/mL | RE [3, 16]: -0.07% | Mean recovery [3, 17]: 999.3 ± 62.2 ng/mL

C=C1C[C@@]23CC[C@H]4[C@@](C)(CCC[C@@]4(C)C(=O)O)[C@@H]2CC[C@@H]1C3 [KAU, kaurenoic acid]
concentration promoting vasodilatory effects in rat aortas ([4]; endothelium-intact or denuded rings): greater than 10 mM | concentration with concentration-dependent activity on vascular smooth muscle ([4]; rat aortic rings pre-contracted with phenylephrine and potassium chloride): ≥ 10 µM | Mean recovery ([1]; 8 h at room temperature, high level (Coumarin 1250.0, 7-hydroxycoumarin 750.0, o-coumaric acid 750.0, Kaurenoic acid 500.0 ng/mL)): 516.6 ± 5.1 ng/mL | RE ([1]; 8 h at room temperature, high level, stored vs freshly prepared): 3.33% | Mean recovery ([1]; 8 h at room temperature, low level (Coumarin 50.0, 7-hydroxycoumarin 12.5, o-coumaric acid 25.0, Kaurenoic acid 10.0 ng/mL)): 10.2 ± 0.7 ng/mL | RE ([1]; 8 h at room temperature, low level, stored vs freshly prepared): 8.94% | Mean recovery ([1]; 30 days at 4 °C (stock solutions), high level (1250.0, 750.0, 750.0, 500.0 ng/mL)): 487.8 ± 34.9 ng/mL | Mean recovery ([1]; 30 days at 4 °C (stock solutions), low level (50.0, 12.5, 25.0, 10.0 ng/mL)): 9.75 ± 0.6 ng/mL | RE ([1]; 30 days at 4 °C, high level): 3.33% | RE ([1]; 30 days at 4 °C, low level): -2.46% | IC50, expression of cyclooxygenase-2 activity (cyclooxygenase-2): 3.5 µg/mL | IC50 [5]: 51.7 µM | plasma levels after guaco syrup without spiking [6]: did not provide sufficient levels | IC50 [7]: 106 µM | Mean recovery ([2]; post-preparative: extracted samples 24 hours at 20°C, high level (1250.0, 750.0, 750.0, 500.0 ng/mL)): 509.8 ± 6.6 ng/mL | Mean recovery ([2]; post-preparative: extracted samples 24 hours at 20°C, low level (50.0, 12.5, 25.0, 10.0 ng/mL)): 9.8 ± 0.4 ng/mL | RE ([2]; post-preparative, high level): 1.96% | RE ([2]; post-preparative, low level): -1.70% | Mean recovery ([3]; Long-term: plasma at -40°C, 60 days, high level (1250.0, 750.0, 750.0, 500.0 ng/mL)): 463.2 ± 12.3 ng/mL | Mean recovery ([3]; Long-term: plasma at -40°C, 60 days, low level (50.0, 12.5, 25.0, 10.0 ng/mL)): 8.8 ± 0.3 ng/mL | RE ([3]; Long-term, high level): -7.36% | RE ([3]; Long-term, low level): -11.70% | Mean recovery ([3]; Short-term: plasma at room temperature for 8 h, high level (1250.0, 750.0, 750.0, 500.0 ng/mL)): 498.9 ± 7.6 ng/mL | Mean recovery ([3]; Short-term: plasma at room temperature for 8 h, low level (50.0, 12.5, 25.0, 10.0 ng/mL)): 10.0 ± 0.3 ng/mL | RE ([3]; Short-term, high level): -0.22% | RE ([3]; Short-term, low level): 0.23% | RE ([3]; freeze–thaw cycles, high level): 0.49% | RE ([3]; freeze–thaw cycles, low level): -0.41% | Mean recovery ([3]; three freeze–thaw cycles, plasma, high level (1250.0, 750.0, 750.0, 500.0 ng/mL)): 502.5 ± 6.1 ng/mL | Mean recovery ([3]; three freeze–thaw cycles, plasma, low level (50.0, 12.5, 25.0, 10.0 ng/mL)): 9.9 ± 0.4 ng/mL | reduction of the swelling [8]: 34.4%

C[C@]12C=CC(=O)C=C1CC[C@@H]1[C@@H]2C(=O)C[C@@]2(C)[C@H]1CC[C@]2(O)C(=O)CO [Prednisone, prednisone, reference compound]
Mean recovery [1, 10]: 470.5 ± 26.6 ng/mL | RE [1, 11]: -5.90% | Mean recovery [1, 12]: 497.0 ± 13.9 ng/mL | RE [2, 14]: -4.14% | Mean recovery [2, 15]: 479.3 ± 16.9 ng/mL | RE [3, 16]: 0.43% | Mean recovery [3, 17]: 502.2 ± 11.1 ng/mL

Cn1c(=O)c2[nH]cnc2n(C)c1=O [theophylline]
clearance [9]: 2.8 L/h
